# Where a name gives a salt, the structure may show the parent alone. Read-outs that look alike come from different tables or passages of the source.
# System: S. aureus Oxford, S. aureus WCUH29, S. pneumoniae 1629, S. pneumoniae N1387, S. pneumoniae ERY 2
# Assay: MIC of test compounds against various organisms
# Assay type: cell-based
# Procedure: The MIC (μg/ml) of test compounds against various organisms was determined: S. aureus Oxford, S. aureus WCUH29, S. pneumoniae 1629, S. pneumoniae N1387, S. pneumoniae ERY 2.
SMILES,"MIC (against one or more of S. aureus Oxford, S. aureus WCUH29, S. pneumoniae 1629, S. pneumoniae N1387, S. pneumoniae ERY 2, read-out: MIC)",MIC
"COc1ccc2nccc([C@@H](O)CN3CCN(CCNC(=O)c4cccs4)CC3)c2c1 [Example 7, Thiophene-2-carboxylic acid (2-{14[(R)-2-hydroxy-2-(6-methoxy-quinolin-4-yl)-ethyl]-piperazin-1-yl}-ethyl)-amide Dioxalate Salt]",< 1 µg/mL,–
"COc1ccc2nccc([C@@H](O)CN3CCN(CCCCc4ccccc4)CC3)c2c1 [Example 12, (R)-1-(6-Methoxy-quinolin-4-yl)-2-[4-(4-phenyl-butyl)piperazin-1-yl]-ethanol Dioxalate]",–,< 1 µg/mL
